Patent publication US11396517B1, “Exo-aza spiro inhibitors of menin-MLL interaction” (Janssen Pharmaceutica NV, priority 2017, dated 2022)

Experiments:
menin = biological target: T1, menin (Homo sapiens, UniProt O00255, T541A); assay: Menin/MLL homogenous time-resolved fluorescence (HTRF) assay; format: binding; details: location 2; read-out: (2) location 2 Menin HTRF assay (IC50 (nM))
T1 construct: Menin (a.a. 1-610-6×his tag)
T1 sequence (O00255 with tags, fused parts or gaps T541A): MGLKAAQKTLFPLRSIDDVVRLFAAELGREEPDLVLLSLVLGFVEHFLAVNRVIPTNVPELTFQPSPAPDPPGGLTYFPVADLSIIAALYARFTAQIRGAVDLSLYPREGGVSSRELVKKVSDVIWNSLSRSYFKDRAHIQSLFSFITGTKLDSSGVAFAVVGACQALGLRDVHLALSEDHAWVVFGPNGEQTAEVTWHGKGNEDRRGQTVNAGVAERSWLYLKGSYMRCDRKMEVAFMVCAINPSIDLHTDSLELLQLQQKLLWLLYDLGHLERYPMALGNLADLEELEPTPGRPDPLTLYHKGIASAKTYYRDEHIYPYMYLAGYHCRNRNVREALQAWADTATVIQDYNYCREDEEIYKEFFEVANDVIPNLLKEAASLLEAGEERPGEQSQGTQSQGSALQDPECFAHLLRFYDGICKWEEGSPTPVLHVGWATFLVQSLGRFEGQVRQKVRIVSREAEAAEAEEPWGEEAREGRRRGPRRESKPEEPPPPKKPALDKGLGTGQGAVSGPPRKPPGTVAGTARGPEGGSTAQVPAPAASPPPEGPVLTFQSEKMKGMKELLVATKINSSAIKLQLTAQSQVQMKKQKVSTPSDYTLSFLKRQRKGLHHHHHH
How it was run: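 Displacement of 75 nM FITC-MBM1 from terbium-cryptate-labeled His-tagged menin 1-610 ([…]) was read as the 520/490 nm HTRF ratio. Compound (11-point, 3-fold series) got 5 min with menin before peptide, then 15 min at ambient; 0.5% DMSO, Tris pH 7.5.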

K562 = assay: Proliferation assay B (spheroid assay) K562 control cell line; format: cell-based; details: Homo sapiens, 192 h; K562 cells (MLL wildtype control), confluence at day 8; read-out: (3b) Spheroid assay K562 Assay B
Description: 3b) Proliferation Assay B
The anti-proliferative effect of menin/MLL protein/protein interaction inhibitor test compounds was assessed in human leukemia cell lines. The cell lines MV-4-11 and MOLM14 harbor MILL translocations and express the MILL fusion proteins MLL-AF4 and MLL-AF9, respectively, as well as the wildtype protein from the second allele. […] K562 was used as a control cell line containing two MLL wildtype alleles in order to exclude compounds that display general cytotoxic effects.
MV-4-11 and MOLM14 were cultured in RPMI-1640 (Sigma Aldrich) supplemented with 10% fetal bovine serum (HyClone), 2 mM L-glutamine (Sigma Aldrich) and 50 μg/ml gentamycin (Gibco). K562 were propagated in RPMI-1640 (Sigma Aldrich) supplemented with 20% fetal bovine serum (HyClone), 2 mM L-glutamine (Sigma Aldrich) and 50 μg/ml gentamycin (Gibco).
In order to assess the anti-proliferative effects, 1,500 MV-4-11, 300 MOLM14 cells or 750 K562 cells were seeded in 200 μl media per well in 96-well round bottom, ultra-low attachment plates (Costar, catalogue number 7007). Cell seeding numbers were chosen based on growth curves to ensure linear growth throughout the experiment. Test compounds were added at different concentrations and the DMSO content was normalized to 0.3%. Cells were incubated for 8 d at 37° C. and 5% CO2. Spheroid like growth was measured in real-time by live-cell imaging (IncuCyteZOOM, Essenbio, 4× objective) acquiring images at day 8. Confluence (%) as a measure of spheroid size was determined using an integrated analysis tool.
In order to determine the effect of the test compounds over time, the confluence in each well as a measure of spheroid size, was calculated. Confluence […] at the beginning of the experiment (t=0) was used as baseline for the calculation.
Absolute IC50 values were calculated as percent change in confluence as follows:
LC=Low Control: cells treated with 1 μM of the cytotoxic agent staurosporin
HC=High Control: Mean confluence (%) (DMSO treated cells) % Effect=100−(100*(Sample−LC)/(HC−LC))
To determine the IC50 a curve is fitted to the plot of % Effect vs Log 10 compound concentration using a sigmoidal fit with a variable slope and fixing the maximum to 100% and the minimum to 0%.

## FC(F)(F)Cc1cc2c(N3CCC4(CC(Nc5ccc6cc[nH]c6c5)C4)C3)ncnc2s1 (mixture of isomers) [Compound 311]
menin
  IC50: 70.5 nM

## O=c1[nH]c2cc(CNC3CCC4(C3)CN(c3ncnc5sc(CC(F)(F)F)cc35)C4)ccc2o1 (single isomer, unassigned) [Compound 58]
menin
  IC50: 2.9 nM
K562
  IC50: 14100 nM

## Cn1c(=O)[nH]c2cc(CNC3CCC4(C3)CN(c3ncnc5sc(CC(F)(F)F)cc35)C4)ccc21 (centres unmarked) [Compound 54]
menin
  IC50: 1.8 nM

## CNC(=O)c1ccc(NC2CC3(CCN(c4ncnc5sc(CC(F)(F)F)cc45)C3)C2)cc1 (centres unmarked) [Compound 93]
menin
  IC50: 5.8 nM
